Experiment [1] has as its target T1, Recombinant human c-Cbl (aa 47-435) (Homo sapiens, UniProt P22681).
T1 sequence (P22681 47-435): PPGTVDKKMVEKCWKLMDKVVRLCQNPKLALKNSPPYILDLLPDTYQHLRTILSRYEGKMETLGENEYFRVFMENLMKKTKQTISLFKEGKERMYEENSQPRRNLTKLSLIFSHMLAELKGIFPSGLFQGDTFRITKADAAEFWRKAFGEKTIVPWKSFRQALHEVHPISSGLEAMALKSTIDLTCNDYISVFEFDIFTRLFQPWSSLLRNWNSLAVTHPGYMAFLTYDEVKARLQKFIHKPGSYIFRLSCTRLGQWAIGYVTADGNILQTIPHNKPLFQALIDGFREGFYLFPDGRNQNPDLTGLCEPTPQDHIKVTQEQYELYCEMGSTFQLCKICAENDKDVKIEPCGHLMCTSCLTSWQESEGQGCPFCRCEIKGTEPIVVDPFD
The experiment can be described thus: c-Cbl Biochemical Assay (TR-FRET).

For experiment [2], the system named is Jurkat (clone E6-1) cells with NFAT luciferase reporter. The experiment can be described thus: Jurkat reporter assay (NFAT Luciferase). It is filed as cell-based. As to conditions: Homo sapiens; Jurkat NFAT luciferase reporter cells, anti-CD3 stimulation, 6 hr; read-out: Jurkat NFAT EC50.
Experiment [3] has as its target Recombinant human Cbl-b (aa 36-427) (Homo sapiens, UniProt Q13191). The experiment can be described thus: Cbl-b Biochemical Assay (TR-FRET).
Where [4] appears, read: hc-Cbl Biochemical Assay (TR-FRET), read-out: TR-FRET hcCbl IC50.

Each structure is given as a SMILES string. Where two headings read alike, the source gives them in different places.

Chain of Recombinant human Cbl-b (aa 36-427) (Q13191 36-427): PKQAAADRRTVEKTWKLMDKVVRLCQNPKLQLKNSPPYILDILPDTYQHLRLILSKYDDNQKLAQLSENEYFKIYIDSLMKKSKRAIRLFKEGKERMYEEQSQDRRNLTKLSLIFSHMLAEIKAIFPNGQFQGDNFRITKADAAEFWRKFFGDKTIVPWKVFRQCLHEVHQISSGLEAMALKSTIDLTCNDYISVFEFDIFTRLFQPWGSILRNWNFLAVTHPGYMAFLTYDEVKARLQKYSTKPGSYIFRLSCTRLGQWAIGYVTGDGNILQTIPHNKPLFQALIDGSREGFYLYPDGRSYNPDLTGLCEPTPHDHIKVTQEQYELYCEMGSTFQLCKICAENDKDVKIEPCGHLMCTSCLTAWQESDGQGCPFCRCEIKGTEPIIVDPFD

With `Cc1cc(CN(C)[C@@H]2CCC[C@@H]2O)cc2nc(-c3cc(-c4ccc(F)cc4-c4nncn4C)cc(C4CC4)n3)oc12` [AFG-1, (1S,2R)-2-(((2-(6-Cyclopropyl-4-(4-fluoro-2-(4-methyl-4H-1,2,4-triazol-3-yl)phenyl)pyridin-2-yl)-7-methylbenzo[d]oxazol-5-yl)methyl)(methyl)amino)cyclopentan-1-ol], the IC50 in experiment [1] and in experiment [3] was below 200 nM each time. Besides, the concentration for a half-maximal effect (EC50) in experiment [2] was below 200 nM.

With `CO[C@H](CO)c1cc(C(F)(F)F)c2oc(-c3cccc(-c4ccc(F)cc4-c4nncn4C)c3)nc2c1` (single isomer, unassigned) [EG-2], the IC50 is 200 to 1000 nM in experiment [1] (setting [4]) and below 200 nM in experiment [3] (read-out: TR-FRET hCbl-b IC50). Further, the concentration for a half-maximal effect (EC50) in experiment [2] lay in the range of 1000 to 10000 nM.

Regarding `Cn1cnnc1-c1ccccc1-c1cccc(-c2nc3cc(CN4CCC5(CC5)C4)cc(C(F)(F)F)c3[nH]2)c1` [ACF-1, 5-((5-Azaspiro[2.4]heptan-5-yl)methyl)-2-(2′-(4-methyl-4H-1,2,4-triazol-3-yl)-[1,1′-biphenyl]-3-yl)-7-(trifluoromethyl)-1H-benzo[d]imidazole], the results for the 50% inhibitory concentration (IC50) in experiment [1] (setting [4]) and in experiment [3] (read-out: TR-FRET hCbl-b IC50) were 10000 to 50000 nM and 200 to 1000 nM, respectively. The EC50 in experiment [2] lay in the range of 1000 to 10000 nM.

On to `Cn1cnnc1-c1cc(F)ccc1-c1cccc(-c2nc3cc(CNCC4COC4)cc(C(F)(F)F)c3o2)c1` [GB-2, 1-(2-(4′-Fluoro-2′-(4-methyl-4H-1,2,4-triazol-3-yl)-[1,1′-biphenyl]-3-yl)-7-(trifluoromethyl)benzo[d]oxazol-5-yl)-N-(oxetan-3-ylmethyl)methanamine], for which the IC50 in experiment [1] (setting [4]) and in experiment [3] (read-out: TR-FRET hCbl-b IC50) was below 200 nM throughout. Also, the EC50 in experiment [2] is below 200 nM.

In the case of `Cc1cc(CN(C)CC2(O)CCC2)cc2nc(-c3cc(-c4ccc(F)cc4-c4nncn4C)cc(C4CC4)n3)oc12` [AFH-2, 1-({[(2-{6-Cyclopropyl-4-[4-fluoro-2-(4-methyl-1,2,4-triazol-3-yl)phenyl]pyridin-2-yl}-7-methyl-1,3-benzoxazol-5-yl)methyl](methyl)amino}methyl)cyclobutan-1-ol], the IC50 in experiment [1] (setting [4]) is 200 to 1000 nM; in experiment [3] (read-out: TR-FRET hCbl-b IC50), below 200 nM. The EC50 in experiment [2] fell in the range of 200 to 1000 nM.

With `COc1cc(CN[C@@H]2C[C@H](O)C2(C)C)cc2nc(-c3cccc(-c4ccc(F)cc4-c4nncn4C)c3)oc12` [HF-1, (1S,3R)-3-(((2-(4′-Fluoro-2′-(4-methyl-4H-1,2,4-triazol-3-yl)-[1,1′-biphenyl]-3-yl)-7-methoxybenzo[d]oxazol-5-yl)methyl)amino)-2,2-dimethylcyclobutan-1-ol], the IC50 was 200 to 1000 nM in experiment [1] (setting [4]) and below 200 nM in experiment [3] (read-out: TR-FRET hCbl-b IC50). In addition, the EC50 in experiment [2] was in the range of 1000 to 10000 nM.

In the case of `Cn1cnnc1-c1cc(Cl)ccc1-c1cccc(-c2nc3cc(CO)ccc3o2)c1` [ADK-1, {2-[4′-Chloro-2′-(4-methyl-1,2,4-triazol-3-yl)-[1,1′-biphenyl]-3-yl]-1,3-benzoxazol-5-yl}methanol], the IC50 in experiment [1] (setting [4]) and in experiment [3] (read-out: TR-FRET hCbl-b IC50) was 1000 to 10000 nM throughout. In addition, the EC50 in experiment [2] is 10000 to 50000 nM.

Turning to `CC(C)NCc1cc(C(F)(F)F)c2oc(-c3cccc(-c4ccc(F)cc4-c4nncn4C)c3)nc2c1` [EP-2, N-((2-(4′-Fluoro-2′-(4-methyl-4H-1,2,4-triazol-3-yl)-[1,1′-biphenyl]-3-yl)-7-(trifluoromethyl)benzo[d]oxazol-5-yl)methyl)propan-2-amine], the results for the IC50 in experiment [1] (setting [4]) and in experiment [3] (read-out: TR-FRET hCbl-b IC50) were 200 to 1000 nM and below 200 nM, respectively. Further, in experiment [2], the EC50 was in the range of 200 to 1000 nM.

Regarding `Cn1cnnc1-c1cc(F)ccc1-c1cccc(-c2nc3cc(CN[C@@H]4COC[C@@H]4O)cc(C(F)(F)F)c3o2)c1` [DH-2, (3R,4R)-4-(((2-(4′-Fluoro-2′-(4-methyl-4H-1,2,4-triazol-3-yl)-[1,1′-biphenyl]-3-yl)-7-(trifluoromethyl)benzo[d]oxazol-5-yl)methyl)amino)tetrahydrofuran-3-ol], the IC50 in experiment [1] (setting [4]) and in experiment [3] (read-out: TR-FRET hCbl-b IC50) was below 200 nM each time. Further, the 50% effective concentration (EC50) in experiment [2] was below 200 nM.

As for `Cn1cnnc1-c1cc(F)ccc1-c1cccc(-c2nc3cc(CN[C@@H]4CCC[C@@H]4O)cc(C(F)F)c3o2)c1` [EY-2, (1S,2R)-2-(((7-(Difluoromethyl)-2-(4′-fluoro-2′-(4-methyl-4H-1,2,4-triazol-3-yl)-[1,1′-biphenyl]-3-yl)benzo[d]oxazol-5-yl)methyl)amino)cyclopentan-1-ol], the half-maximal inhibitory concentration (IC50) in experiment [1] (setting [4]) and in experiment [3] (read-out: TR-FRET hCbl-b IC50) was below 200 nM throughout. Also, in experiment [2], the EC50 is below 200 nM.

With `CC(C)CNCc1cc(C(F)(F)F)c2oc(-c3cccc(-c4ccc(F)cc4-c4nncn4C)c3)nc2c1` [FX-2, N-((2-(4′-Fluoro-2′-(4-methyl-4H-1,2,4-triazol-3-yl)-[1,1′-biphenyl]-3-yl)-7-(trifluoromethyl)benzo[d]oxazol-5-yl)methyl)-2-methylpropan-1-amine], the concentration for half-maximal inhibition (IC50) in experiment [1] (setting [4]) and in experiment [3] (read-out: TR-FRET hCbl-b IC50) was below 200 nM each time. For the same molecule, in experiment [2], the EC50 is below 200 nM.

On to `CO[C@H]1CCCN(Cc2cc(C(F)(F)F)c3oc(-c4cccc(-c5ccc(F)cc5-c5nncn5C)c4)nc3c2)C1` [IU-2, (S)-2-(4′-Fluoro-2′-(4-methyl-4H-1,2,4-triazol-3-yl)-[1,1′-biphenyl]-3-yl)-5-((3-methoxypiperidin-1-yl)methyl)-7-(trifluoromethyl)benzo[d]oxazole], for which the half-inhibitory concentration (IC50) in experiment [1] (setting [4]) and in experiment [3] (read-out: TR-FRET hCbl-b IC50) was below 200 nM in each case. In addition, in experiment [2], the 50% effective concentration (EC50) lay in the range of 200 to 1000 nM.

`C[C@H]1CCCN(Cc2cc(C(F)(F)F)c3[nH]c(-c4cccc([C@]5(c6nncn6C)C[C@@H](C)C5)c4)nc3c2)C1` [AAX-12, 6-{[(3S)-3-Methylpiperidin-1-yl]methyl}-2-{3-[(1r,3s)-3-methyl-1-(4-methyl-1,2,4-triazol-3-yl)cyclobutyl]phenyl}-4-(trifluoromethyl)-3H-1,3-benzodiazole]: the IC50 in experiment [1] (setting [4]) was 10000 to 50000 nM; in experiment [3] (read-out: TR-FRET hCbl-b IC50) it was below 200 nM. Besides, the EC50 in experiment [2] fell in the range of 1000 to 10000 nM.

For `COCCNCc1cc(F)c2oc(-c3cccc(-c4ccc(F)cc4-c4nncn4C)c3)nc2c1` [IS-1, N-((7-Fluoro-2-(4′-fluoro-2′-(4-methyl-4H-1,2,4-triazol-3-yl)-[1,1′-biphenyl]-3-yl)benzo[d]oxazol-5-yl)methyl)-2-methoxyethan-1-amine], the IC50 in experiment [1] (setting [4]) and in experiment [3] (read-out: TR-FRET hCbl-b IC50) was below 200 nM throughout. Moreover, the EC50 in experiment [2] is below 200 nM.

Take `Cn1cnnc1-c1cc(F)ccc1-c1cc(-c2nc3cc(CNCC4(O)CCC4)ccc3o2)nc(C2CC2)c1` [AFC-1, 1-({[(2-{6-Cyclopropyl-4-[4-fluoro-2-(4-methyl-1,2,4-triazol-3-yl)phenyl]pyridin-2-yl}-1,3-benzoxazol-5-yl)methyl]amino}methyl)cyclobutan-1-ol]: the IC50 in experiment [1] (setting [4]) and in experiment [3] (read-out: TR-FRET hCbl-b IC50) was below 200 nM each time. In addition, the EC50 in experiment [2] is below 200 nM.

Turning to `C[C@H]1CCCN(Cc2cc(C(F)(F)F)c3oc(-c4cc(-c5ccc(F)cc5-c5nncn5C)cc(C5CC5)n4)nc3c2)C1` [ADO-1, 2-{6-Cyclopropyl-4-[4-fluoro-2-(4-methyl-1,2,4-triazol-3-yl)phenyl]pyridin-2-yl}-5-{[(3S)-3-methylpiperidin-1-yl]methyl}-7-(trifluoromethyl)-1,3-benzoxazole], the 50% inhibitory concentration (IC50) in experiment [1] (setting [4]) and in experiment [3] (read-out: TR-FRET hCbl-b IC50) was below 200 nM in each case. In experiment [2], the EC50 was below 200 nM.

Values taken from patent publication US20250163038A1, “CBL-B MODULATORS AND USES THEREOF” (Nimbus Clio, Inc., priority 2021, published 2025).
